Results taken from patent US20180340174A1, “METHOD FOR IDENTIFICATION OF MOLECULES WITH DESIRED CHARACTERISTICS” (NANOCORE APS, priority 2014, published 2018).
Read-outs that look alike come from different tables or passages of the source. Where no end group is shown, it is not given here.

Legend:
[1] = Serizawa et al. 2007; cited from earlier work
[2] = Wang et al. 2003; cited from earlier work
[3] = Seker et al. 2011; Chen et al. 2006; cited from earlier work
[4] = Serizawa et al. 2007; bound to PMMA (syndiotactic); cited from earlier work
[5] = Serizawa et al. 2007; bound to PMMA (isotactic); cited from earlier work
[6] = Sano et al. 2005; Meyers et al. 2007; cited from earlier work
[7] = Serizawa et al. 2007; bound to Polystyrene (syndiotactic); cited from earlier work
[8] = Serizawa et al. 2007; bound to Polystyrene (atactic); cited from earlier work
[9] = Serizawa et al. 2007; bound to Polystyrene (isotactic); cited from earlier work
[10] = molecular target: T1, soluble epoxide hydrolase (sEH) (Homo sapiens, UniProt P34913); conditions: Litovchick 2015; cited from earlier work
T1 sequence (P34913 1-555): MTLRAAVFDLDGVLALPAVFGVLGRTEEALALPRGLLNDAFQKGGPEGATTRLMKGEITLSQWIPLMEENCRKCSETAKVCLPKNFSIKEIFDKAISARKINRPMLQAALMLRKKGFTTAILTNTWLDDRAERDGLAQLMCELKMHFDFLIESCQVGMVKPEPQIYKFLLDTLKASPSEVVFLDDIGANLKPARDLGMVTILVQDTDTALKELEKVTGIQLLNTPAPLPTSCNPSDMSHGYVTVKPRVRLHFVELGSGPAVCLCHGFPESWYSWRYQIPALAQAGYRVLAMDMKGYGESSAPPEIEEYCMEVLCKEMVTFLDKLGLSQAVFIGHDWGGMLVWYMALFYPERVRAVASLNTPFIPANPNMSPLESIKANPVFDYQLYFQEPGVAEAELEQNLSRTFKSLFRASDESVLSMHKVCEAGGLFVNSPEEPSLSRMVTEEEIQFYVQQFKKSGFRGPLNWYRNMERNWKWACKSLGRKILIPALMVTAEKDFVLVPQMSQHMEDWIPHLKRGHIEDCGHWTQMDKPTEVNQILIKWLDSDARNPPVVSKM

[11] = Selection of polynucleotide-tagged molecules on carbon nanotubes without and with PPyCl repeat units in the medium (Example 15.0.0.0); type: binding
Method: In this example library molecules (M) are peptides linked by […] (L) to DNA tags encoding the peptide. […] Identification of carbon nanotube binding molecules is described in Brown et al. (Small. 2008 April; 4 (4):416-20). The CNT target is prepared from single-walled carbon nanotubes (purified HiPCO, Carbon Nanotechnologies Inc., US) used as purchased. Bundles and individual tubes are suspended in dichloroethane by sonication and deposited on pieces of double side polished Si wafers. The CNT mats are inspected by scanning electron microscopy. A uniform, dense coverage on both sides of the 1 cm2 substrates is achieved by repeatedly depositing drops from the suspension, rinsing with isopropanol, and blow drying with nitrogen. Test enrichments are conducted inn a phosphate buffer (PKT). The enrichment for adhesion to CNT mats using solution conditions is done similarly to other searches for CNT binders. The population recovered from a single cycle of enrichment for binding to CNTs in a Tris-HCl buffer (TNT) differed from that obtained in PKT.
Binding molecules, which bind efficiently to a filler (carbon nanotubes) but not to a polymer matrix (PPyCl) of a composite material, are identified essentially as described in example 1.1.1.1. […]

[12] = Serizawa et al. 2007; cited from earlier work; remark: listed apart in the source
[13] = Weiger et al. 2010; read-out: KD to HA; cited from earlier work
[14] = Islam et al. 2012; bound to Ceramic hydroxyl-apatite; cited from earlier work
[15] = Islam et al. 2012; bound to Ceramic fluorapatite; cited from earlier work
[16] = Li et al. 2013; cited from earlier work
[17] = Enrichment of CNT-binding peptide A2 displayed on bacteriophages versus mini-M13, blue/white colony counting
[18] = Eijima et al. 2010; bound to PPV (linear); cited from earlier work
[19] = Eijima et al. 2010; bound to PPV (hyper-branched); cited from earlier work
[20] = Seker et al. 2011; cited from earlier work
[21] = Matsuno et al. 2008; bound to PLLA (melt crystallization); cited from earlier work
[22] = Matsuno et al. 2008; bound to PMMA (atactic); cited from earlier work
[23] = Matsuno et al. 2008; bound to PLLA (amorphous); cited from earlier work
[24] = Matsuno et al. 2008; bound to PLLA (layer by layer); cited from earlier work
[25] = Matsuno et al. 2008; bound to PDLA; cited from earlier work

In the case of THLPWQT, the Kd [1] is given as 0.067 nM.
For HWKHPWGAWDTL, the Kd [2] is listed as 50000 nM.
For RLNPPSQMDPPF, the Kd [3] is given as 8300 nM.
For ELWRPTR, the Kd [4] is listed as 150000 nM and the Kd [5] is listed as 3600 nM.
For SCSDCLKSVDFIPSSLASS, the Kd [6] is given as 250 nM.
In the case of RHEPPLA, the Kd [7] is given as 0.011 nM, the Kd [8] is given as 0.056 nM and the Kd [9] is given as 0.021 nM.
In the case of FPGHSGP, the Kd [1] is given as 0.1 nM.
For CHKKPSKSC, the Kd [3] is given as 4.1 nM.
For FPGRPSP, the Kd [7] is listed as 0.0085 nM and the Kd [8] is listed as 0.031 nM.
For RKLPDAPGMHTW, the Kd [6] is given as 13000 nM.
For `CN(CCn1cccn1)C(=O)c1ccc(-c2cccc(C(=O)NC3CCCCC3)c2)nc1` [compound 12], the “enrichment over two affinity-mediated selection steps compared to the average within the naïve library” value [10] is listed as “approximately 30,000 fold”.
For “polynucleotide-tagged THRTSTLDYFVI-pyrene: polynucleotide-tagged peptide-pyrene which can bind to both carbon nanotubes and PPyCl (also: polynucleotide tag, site not given here)”, the “Outcome of selection on carbon nanotubes” value ([11]; first experiment, medium as in example 1.1.1.1) was “identified as carbon nanotube binding molecules” and the “Outcome of selection on carbon nanotubes” value ([11]; second experiment, medium comprises repeat units of PPyCl) was “removed during the partitioning step”.
In the case of YLTMPTP, the Kd [7] is given as 0.005 nM and the Kd [8] is given as 0.022 nM.
In the case of GETRAPL, the Kd [7] is listed as 0.0067 nM, the Kd [8] is listed as 0.067 nM and the Kd [9] is listed as 0.036 nM.
In the case of HKPDANR, the Kd [12] is given as 0.025 nM.
For SVSVGMKPSPRPGGGK, the Kd [13] is given as 14100 nM.
For KPRSVSG, the Kd [14] is given as 7200 nM and the Kd [15] is given as 5400 nM.
For IFRLSWGTYFS [A2], the Kd [16] is listed as 20000 nM, the Enrichment fold ([17]; 1 wash, CNT 0.02 mg/ml, 1.1E+9 bacteriophages) is listed as 100 fold and the Enrichment fold ([17]; 3 washes, CNT 0.02 mg/ml, 1.1E+9 bacteriophages) is listed as 85 fold. For the same compound, the Enrichment fold ([17]; 10 washes, CNT 0.02 mg/ml, 1.1E+9 bacteriophages) was 91 fold, the Enrichment fold ([17]; one wash, CNT 0.02 mg/ml, 1.1E+11 bacteriophages) was 2 fold and the Enrichment fold ([17]; one wash, CNT 0.2 mg/ml, 1.1E+9 bacteriophages) was 23 fold. It also gave an Enrichment fold ([17]; one wash, CNT 0.2 mg/ml, 1.1E+11 bacteriophages) of 7 fold, an Enrichment fold ([17]; one wash, CNT 2 mg/ml, 1.1E+9 bacteriophages) of 4 fold and an Enrichment fold ([17]; one wash, CNT 2 mg/ml, 1.1E+11 bacteriophages) of 10 fold. The Enrichment fold ([17]; ten washes with 1 min. sonication at 35 kHz and 160 W during washing, CNT 0.2 mg/ml, 1.1E+11 bacteriophages) was 15 fold, the Enrichment fold ([17]; ten washes, CNT 0.02 mg/ml, 1.1E+11 bacteriophages) was 8 fold and the Enrichment fold ([17]; ten washes, CNT 0.2 mg/ml, 1.1E+9 bacteriophages) was 17 fold. It also gave an Enrichment fold ([17]; ten washes, CNT 0.2 mg/ml, 1.1E+11 bacteriophages) of 19 fold, an Enrichment fold ([17]; ten washes, CNT 2 mg/ml, 1.1E+9 bacteriophages) of 2 fold and an Enrichment fold ([17]; ten washes, CNT 2 mg/ml, 1.1E+11 bacteriophages) of 3 fold. For the same compound, the Enrichment fold ([17]; three washes with 1 min. sonication at 35 kHz and 160 W during washing, CNT 0.2 mg/ml, 1.1E+11 bacteriophages) was 17 fold, the Enrichment fold ([17]; three washes, CNT 0.02 mg/ml, 1.1E+11 bacteriophages) was 16 fold and the Enrichment fold ([17]; three washes, CNT 0.2 mg/ml, 1.1E+9 bacteriophages) was 16 fold. For the same compound, the Enrichment fold ([17]; three washes, CNT 0.2 mg/ml, 1.1E+11 bacteriophages) was 16 fold, the Enrichment fold ([17]; three washes, CNT 2 mg/ml, 1.1E+9 bacteriophages) was 2 fold and the Enrichment fold ([17]; three washes, CNT 2 mg/ml, 1.1E+11 bacteriophages) was 4 fold.
For ELWSIDTSAHRK, the Kd [18] is given as 13000 nM and the Kd [19] is given as 27000 nM.
In the case of CPTSTGQAC, the Kd [20] is listed as 280 nM.
For FSWEAFA, the Kd [7] is listed as 0.0061 nM, the Kd [8] is listed as 0.085 nM and the Kd [9] is listed as 0.034 nM.
For GETQCAA, the Kd [7] is listed as 0.0074 nM and the Kd [8] is listed as 0.034 nM.
In the case of HTDWRLGTWHETS, the Kd [18] is given as 19000 nM and the Kd [19] is given as 1300 nM.
For HTAQSTA, the Kd [7] is given as 0.01 nM and the Kd [8] is given as 0.014 nM.
In the case of QTWPPPLWFSTS, the Kd [3] is given as 810 nM.
In the case of CTLHVSSYC, the Kd [20] is given as 1100 nM.
For HLESTPG, the Kd [7] is listed as 0.0079 nM, the Kd [8] is listed as 0.1 nM and the Kd [9] is listed as 0.065 nM.
In the case of QLMHDYR, the Kd [21] is listed as 16000 nM, the Kd [22] is listed as 180000 nM and the Kd [23] is listed as 150000 nM. For the same compound, the Kd [24] was 67000 nM and the Kd [25] was 21000 nM.
